# Measured values from PubChem BioAssay (NCI).
#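 GI50 is the concentration that inhibits growth by half. TGI is the concentration that stops growth completely.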
# Legend:
# Test in all cases: DTP human tumour cell line panel, 384-well format
# PC-3 prostate = test system: PC-3 prostate
# NCI/ADR-RES ovarian = test system: NCI/ADR-RES ovarian
# OVCAR-5 ovarian = test system: OVCAR-5 ovarian
# SNB-19 CNS = test system: SNB-19 CNS
# COLO 205 colon = test system: COLO 205 colon
# A549 NSCLC = test system: A549 NSCLC
# CAKI-1 renal = test system: CAKI-1 renal
# M14 melanoma = test system: M14 melanoma
# MDA-MB-435 melanoma = test system: MDA-MB-435 melanoma
# ACHN renal = test system: ACHN renal
# NCI-H23 lung = test system: NCI-H23 lung
# U251 glioblastoma = test system: U251 glioblastoma
# HT29 colon = test system: HT29 colon
# SF-268 CNS = test system: SF-268 CNS
# NCI-H226 lung = test system: NCI-H226 lung
# SK-OV-3 ovarian = test system: SK-OV-3 ovarian
# SK-MEL-28 melanoma = test system: SK-MEL-28 melanoma
# SN12C renal = test system: SN12C renal
# SK-MEL-5 melanoma = test system: SK-MEL-5 melanoma
# UACC-257 melanoma = test system: UACC-257 melanoma
# RPMI-8226 leukemia = test system: RPMI-8226 leukemia
# MDA-MB-231 breast = test system: MDA-MB-231 breast
# A498 renal = test system: A498 renal
# OVCAR-4 ovarian = test system: OVCAR-4 ovarian
# HCT-116 colon = test system: HCT-116 colon
# OVCAR-3 ovarian = test system: OVCAR-3 ovarian
# HL-60(TB) leukemia = test system: HL-60(TB) leukemia
# MALME-3M melanoma = test system: MALME-3M melanoma
# NCI-H322M lung = test system: NCI-H322M lung
# SW-620 colon = test system: SW-620 colon
# HOP-62 NSCLC = test system: HOP-62 NSCLC
# K-562 leukemia = test system: K-562 leukemia
# MOLT-4 leukemia = test system: MOLT-4 leukemia
# SR leukemia = test system: SR leukemia
# SK-MEL-2 melanoma = test system: SK-MEL-2 melanoma
# MCF7 breast = test system: MCF7 breast
# KM12 colon = test system: KM12 colon
# SF-539 CNS = test system: SF-539 CNS
# NCI-H522 lung = test system: NCI-H522 lung
# CCRF-CEM leukemia = test system: CCRF-CEM leukemia
# HCC-2998 colon = test system: HCC-2998 colon
# NCI-H460 NSCLC = test system: NCI-H460 NSCLC
# MDA-MB-468 breast = test system: MDA-MB-468 breast
# SF-295 CNS = test system: SF-295 CNS
# OVCAR-8 ovarian = test system: OVCAR-8 ovarian
# 786-0 renal = test system: 786-0 renal
# T-47D breast = test system: T-47D breast
# DU-145 prostate = test system: DU-145 prostate
# BT-549 breast = test system: BT-549 breast
# HOP-92 NSCLC = test system: HOP-92 NSCLC
# RXF 393 renal = test system: RXF 393 renal
# HCT-15 colon = test system: HCT-15 colon
# UACC-62 melanoma = test system: UACC-62 melanoma
# TK-10 renal = test system: TK-10 renal
# IGROV1 ovarian = test system: IGROV1 ovarian
# LOX IMVI melanoma = test system: LOX IMVI melanoma
# UO-31 renal = test system: UO-31 renal
smiles,measurement,setting,value
Cn1ncnc1[C@@H]1c2n[nH]c(=O)c3cc(F)cc(c23)N[C@H]1c1ccc(F)cc1,GI50,PC-3 prostate,> 100 µM
same,TGI,PC-3 prostate,> 100 µM
same,GI50,NCI/ADR-RES ovarian,> 100 µM
same,TGI,NCI/ADR-RES ovarian,> 100 µM
same,GI50,OVCAR-5 ovarian,> 100 µM
same,TGI,OVCAR-5 ovarian,> 100 µM
same,GI50,SNB-19 CNS,> 100 µM
same,TGI,SNB-19 CNS,> 100 µM
same,GI50,COLO 205 colon,> 100 µM
same,TGI,COLO 205 colon,> 100 µM
same,GI50,A549 NSCLC,> 100 µM
same,TGI,A549 NSCLC,> 100 µM
same,GI50,CAKI-1 renal,> 100 µM
same,TGI,CAKI-1 renal,> 100 µM
same,GI50,M14 melanoma,> 100 µM
same,TGI,M14 melanoma,> 100 µM
same,GI50,MDA-MB-435 melanoma,> 100 µM
same,TGI,MDA-MB-435 melanoma,> 100 µM
same,GI50,ACHN renal,> 100 µM
same,TGI,ACHN renal,> 100 µM
same,GI50,NCI-H23 lung,> 100 µM
same,TGI,NCI-H23 lung,> 100 µM
same,GI50,U251 glioblastoma,> 100 µM
same,TGI,U251 glioblastoma,> 100 µM
same,GI50,HT29 colon,> 100 µM
same,TGI,HT29 colon,> 100 µM
same,GI50,SF-268 CNS,> 100 µM
same,TGI,SF-268 CNS,> 100 µM
same,GI50,NCI-H226 lung,> 100 µM
same,TGI,NCI-H226 lung,> 100 µM
same,GI50,SK-OV-3 ovarian,> 100 µM
same,TGI,SK-OV-3 ovarian,> 100 µM
same,GI50,SK-MEL-28 melanoma,> 100 µM
same,TGI,SK-MEL-28 melanoma,> 100 µM
same,GI50,SN12C renal,> 100 µM
same,TGI,SN12C renal,> 100 µM
same,GI50,SK-MEL-5 melanoma,> 100 µM
same,TGI,SK-MEL-5 melanoma,> 100 µM
same,GI50,UACC-257 melanoma,> 100 µM
same,TGI,UACC-257 melanoma,> 100 µM
same,GI50,RPMI-8226 leukemia,78.9 µM
same,TGI,RPMI-8226 leukemia,> 100 µM
same,GI50,MDA-MB-231 breast,> 100 µM
same,TGI,MDA-MB-231 breast,> 100 µM
same,GI50,A498 renal,> 100 µM
same,TGI,A498 renal,> 100 µM
same,GI50,OVCAR-4 ovarian,> 100 µM
same,TGI,OVCAR-4 ovarian,> 100 µM
same,GI50,HCT-116 colon,74.9 µM
same,TGI,HCT-116 colon,> 100 µM
same,GI50,OVCAR-3 ovarian,> 100 µM
same,TGI,OVCAR-3 ovarian,> 100 µM
same,GI50,HL-60(TB) leukemia,> 100 µM
same,TGI,HL-60(TB) leukemia,> 100 µM
same,GI50,MALME-3M melanoma,> 100 µM
same,TGI,MALME-3M melanoma,> 100 µM
same,GI50,NCI-H322M lung,> 100 µM
same,TGI,NCI-H322M lung,> 100 µM
same,GI50,SW-620 colon,70.9 µM
same,TGI,SW-620 colon,> 100 µM
same,GI50,HOP-62 NSCLC,> 100 µM
same,TGI,HOP-62 NSCLC,> 100 µM
same,GI50,K-562 leukemia,> 100 µM
same,TGI,K-562 leukemia,> 100 µM
same,GI50,MOLT-4 leukemia,11.4 µM
same,TGI,MOLT-4 leukemia,24.6 µM
same,GI50,SR leukemia,2.61 µM
same,TGI,SR leukemia,11.6 µM
same,GI50,SK-MEL-2 melanoma,> 100 µM
same,TGI,SK-MEL-2 melanoma,> 100 µM
same,GI50,MCF7 breast,> 100 µM
same,TGI,MCF7 breast,> 100 µM
same,GI50,KM12 colon,> 100 µM
same,TGI,KM12 colon,> 100 µM
same,GI50,SF-539 CNS,> 100 µM
same,TGI,SF-539 CNS,> 100 µM
same,GI50,NCI-H522 lung,97.7 µM
same,TGI,NCI-H522 lung,> 100 µM
same,GI50,CCRF-CEM leukemia,40.9 µM
same,TGI,CCRF-CEM leukemia,> 100 µM
same,GI50,HCC-2998 colon,43.1 µM
same,TGI,HCC-2998 colon,> 100 µM
same,GI50,NCI-H460 NSCLC,17.3 µM
same,TGI,NCI-H460 NSCLC,> 100 µM
same,GI50,MDA-MB-468 breast,57.1 µM
same,TGI,MDA-MB-468 breast,> 100 µM
same,GI50,SF-295 CNS,> 100 µM
same,TGI,SF-295 CNS,> 100 µM
same,GI50,OVCAR-8 ovarian,> 100 µM
same,TGI,OVCAR-8 ovarian,> 100 µM
same,GI50,786-0 renal,> 100 µM
same,TGI,786-0 renal,> 100 µM
same,GI50,T-47D breast,> 100 µM
same,TGI,T-47D breast,> 100 µM
same,GI50,DU-145 prostate,> 100 µM
same,TGI,DU-145 prostate,> 100 µM
same,GI50,BT-549 breast,> 100 µM
same,TGI,BT-549 breast,> 100 µM
same,GI50,HOP-92 NSCLC,> 100 µM
same,TGI,HOP-92 NSCLC,> 100 µM
same,GI50,RXF 393 renal,52.3 µM
same,TGI,RXF 393 renal,> 100 µM
same,GI50,HCT-15 colon,> 100 µM
same,TGI,HCT-15 colon,> 100 µM
same,GI50,UACC-62 melanoma,> 100 µM
same,TGI,UACC-62 melanoma,> 100 µM
same,GI50,TK-10 renal,> 100 µM
same,TGI,TK-10 renal,> 100 µM
same,GI50,IGROV1 ovarian,> 100 µM
same,TGI,IGROV1 ovarian,> 100 µM
same,GI50,LOX IMVI melanoma,> 100 µM
same,TGI,LOX IMVI melanoma,> 100 µM
same,GI50,UO-31 renal,> 100 µM
same,TGI,UO-31 renal,> 100 µM
